Earlier results as cited in patent US12268783B2, “Platform drug delivery system utilizing crystal engineering and theanine dissolution” (THEAPRIN PHARMACEUTICALS, INC., priority 2015, dated 2025).

Test system: Chironex fleckeri venom
Conditions: mice following venom injection

## zinc gluconate
  survival time: prolonged survival time
